Measurements as given in patent publication US9233979B2, “Compounds that are ERK inhibitors” (Merck Sharp & Dohme Corp., priority 2012, dated 2016).
pIC50: −log10 of the molar value.

Molecular target: phosphorylated active hERK2 enzyme (Homo sapiens (Human), UniProt P28482)
Assay: Active Human ERK2 (hERK2) Activity Assay (IMAP-FP)
Format: biochemical
Conditions: Table 5, 0.5 nM hERK2, 30 μM ATP, 10 point titration, read-out: AERK2 IC50
Method: Assays Active Human ERK2 (hERK2) Activity Assay:
Activated ERK2 activity was determined in an IMAP-FP assay (Molecular Devices). […] The final reaction in each well of 25 μL consists of 0.5 nM hERK2, 900 nM unlabeled peptide, 80 nM labeled-peptide, and 30 μM ATP. Phosphorylation reactions were allowed to proceed for 60 minutes and were immediately quenched by the addition of 60 μL IMAP detection beads (1:1000 dilutions) in IMAP binding buffer (Molecular Devices) with 24 mM NaCl. Plates were read on EnVision reader after 60 minutes binding equilibration using Fluorescence Polarization protocol (Perkin Elmer).

phosphorylated active hERK2 enzyme, sequence (P28482 whole entry): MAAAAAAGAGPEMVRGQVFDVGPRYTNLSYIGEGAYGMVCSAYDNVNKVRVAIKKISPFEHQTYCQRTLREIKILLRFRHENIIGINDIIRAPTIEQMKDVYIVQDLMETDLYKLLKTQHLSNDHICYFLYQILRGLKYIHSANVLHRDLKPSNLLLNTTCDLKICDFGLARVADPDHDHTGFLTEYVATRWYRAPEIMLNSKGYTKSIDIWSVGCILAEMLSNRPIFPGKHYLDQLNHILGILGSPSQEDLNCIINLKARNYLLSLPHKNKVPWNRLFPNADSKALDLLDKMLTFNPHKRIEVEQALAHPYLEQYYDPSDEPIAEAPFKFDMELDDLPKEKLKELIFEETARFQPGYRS

Row | pIC50 | Structure (SMILES)
1 | 7.98 | CCN(CC)c1n[nH]c2cc(NC(=O)N[C@H](COC)c3ccccc3)ncc12 [Example 21, 1-[3-(diethylamino)-1H-pyrazolo[4,3-c]pyridin-6-yl]-3-[(1S)-2-methoxy-1-phenylethyl]urea]
2 | 7.93 | CO[C@@H](C)CNC(=O)Nc1cc2[nH]nc(N3CCOCC3)c2cn1 [Example 17, 1-[(2S)-2-methoxypropyl]-3-(3-morpholin-4-yl-1H-pyrazolo[4,3-c]pyridin-6-yl)urea]
3 | 6.59 | COCCNC(=O)Nc1cc2[nH]nc(N3CCC3)c2cn1 [Example 8, 1-(3-azetidin-1-yl-1H-pyrazolo[4,3-c]pyridin-6-yl)-3-(2-methoxyethyl)urea]
4 | 7.66 | COC[C@@H](NC(=O)Nc1cc2[nH]nc(N3CCN(C)CC3)c2cn1)c1ccccc1 [Example 14, 1-[(1S)-2-methoxy-1-phenylethyl]-3-[3-(4-methylpiperazin-1-yl)-1H-pyrazolo[4,3-c]pyridin-6-yl]urea]
5 | 8.19 | CC(=O)Nc1n[nH]c2c(F)c(NC(=O)N[C@H](C)c3ccccc3)ncc12 [Example 58, (R)—N-(7-Fluoro-6-(3-(1-phenylethyl)ureido)-1H-pyrazolo[4,3-c]pyridin-3-yl)acetamide]

Same assay, conditions: Table 6, 0.5 nM hERK2, 30 μM ATP, 10 point titration, read-out: AERK2 IC50

Row | pIC50 | Structure (SMILES)
6 | 8.62 | CCNc1n[nH]c2cc(NC(=O)NCc3c(F)cccc3OC)ncc12 [Example 242, 1-[3-(ethylamino)-1H-pyrazolo[4,3-c]pyridin-6-yl]-3-(2-fluoro-6-methoxybenzyl)-urea]
7 | 8.07 | COCC1CN(c2n[nH]c3cc(NC(=O)N[C@H](C)c4ccccc4)ncc23)C1 [Example 81, 1-{3-[3-(methoxy-methyl)azetidin-1-yl]-1H-pyrazolo[4,3-c]-pyridin-6-yl}-3-[(1R)-1-phenylethyl]-urea]
8 | 6.78 | C[C@@H](NC(=O)Nc1cc2[nH]nc(NC3CCNCC3)c2cn1)c1ccccc1 [Example 162, 1-[(1R)-1-phenylethyl]-3-[3-(piperidin-4-ylamino)-1H-pyrazolo[4,3-c]-pyridin-6-yl]urea]
9 | 7.71 | COC[C@@H](NC(=O)Nc1cc2[nH]nc(Nc3cnn(C)c3)c2cn1)c1ccccc1 [Example 370, 1-[(1S)-2-methoxy-1-phenylethyl]-3-{3-[(1-methyl-1H-pyrazol-4-yl)-amino]-1H-pyrazolo[4,3-c]-pyridin-6-yl}urea]
10 | 8.54 | CC(C)(O)[C@@H](NC(=O)Nc1cc2[nH]nc(NC(=O)OC3CCOC3)c2cn1)c1ccc(F)cc1 (stereo partly drawn) [Example 402, tetrahydrofuran-3-yl [6-({[(1S)-1-(4-fluorophenyl)-2-hydroxy-2-methyl-propyl]carbamoyl}amino)-1H-pyrazolo[4,3-c]-pyridin-3-yl]-carbamate]
11 | 9.10 | CCNc1n[nH]c2cc(NC(=O)N[C@@H](c3ccccc3)[C@@H]3CCCO3)ncc12 [Example 148, 1-[3-(ethylamino)-1H-pyrazolo[4,3-c]pyridin-6-yl]-3-{(S)-phenyl[(2S)-tetrahydrofuran-2-yl]methyl}urea]
12 | 6.84 | C[C@@H](NC(=O)Nc1cc2[nH]nc(NC3COC3)c2cn1)c1ccccc1 [Example 188, 1-[3-(oxetan-3-yl-amino)-1H-pyrazolo[4,3-c]pyridin-6-yl]-3-[(1R)-1-phenylethyl]urea]
13 | 8.82 | COC(=O)Nc1n[nH]c2cc(NC(=O)N[C@H](C)c3ccc(Cl)c(F)c3)ncc12 [Example 306, methyl [6-({[(1R)-1-(4-chloro-3-fluorophenyl)ethyl]carbamoyl}amino)-1H-pyrazolo[4,3-c]pyridin-3-yl]-carbamate]
14 | 8.70 | COC(=O)Nc1n[nH]c2cc(NC(=O)N[C@@H](c3ccccc3)C3(O)CCC3)ncc12 [Example 385, methyl [6-({[(S)-(1-hydroxycyclo-butyl)(phenyl)-methyl]carbamoyl}amino)-1H-pyrazolo[4,3-c]-pyridin-3-yl]-carbamate]
15 | 7.57 | COC[C@@H](NC(=O)Nc1cc2[nH]nc(Nc3ccccc3Cl)c2cn1)c1ccccc1 [Example 120, 1-{3-[(2-chlorophenyl)-amino]-1H-pyrazolo[4,3-c]pyridin-6-yl}-3-[(1S)-2-methoxy-1-phenylethyl]urea]
16 | 8.28 | C[C@@H](NC(=O)Nc1cc2[nH]nc(NC(=O)OCCO)c2cn1)c1ccc(F)cc1 [Example 404, 2-hydroxyethyl [6-({[(1R)-1-(4-fluorophenyl)ethyl]carbamoyl}amino)-1H-pyrazolo[4,3-c]pyridin-3-yl]-carbamate]
17 | 7.93 | CCNc1n[nH]c2cc(NC(=O)N[C@H](C)C3CCCCC3)ncc12 [Example 230, 1-[(1R)-1-cyclohexylethyl]-3-[3-(ethylamino)-1H-pyrazolo[4,3-c]pyridin-6-yl]urea]
18 | 8.49 | CCNc1n[nH]c2cc(NC(=O)NC(C)c3ccc(F)c(F)c3)ncc12 (centres unmarked) [Example 251, 1-[1-(3,4-difluoro-phenyl)ethyl]-3-[3-(ethylamino)-1H-pyrazolo[4,3-c]-pyridin-6-yl]urea]
19 | 8.62 | CC(Nc1n[nH]c2cc(NC(=O)N[C@H](C)c3ccccc3)ncc12)C(F)(F)F (stereo partly drawn) [Example 407, 1-[(1R)-1-phenylethyl]-3-{3-[(2,2,2-trifluoro-1-methylethyl)amino]-1H-pyrazolo[4,3-c]pyridin-6-yl}urea]
20 | 9.30 | CC(C)(O)[C@@H](NC(=O)Nc1cc2[nH]nc(NC(=O)N3CCC3)c2cn1)c1ccc(F)cc1 [Example 130, N-[6-({[(1S)-1-(4-fluorophenyl)-2-hydroxy-2-methylpropyl]-carbamoyl}amino)-1H-pyrazolo[4,3-c]pyridin-3-yl]-azetidine-1-carboxamide]
21 | 9.22 | CC(=O)Nc1n[nH]c2cc(NC(=O)N[C@@H](c3ccc(F)cc3)C(C)(C)O)ncc12 [Example 395, N-[6-({[(1S)-1-(4-fluorophenyl)-2-hydroxy-2-methylpropyl]-carbamoyl}amino)-1H-pyrazolo[4,3-c]-pyridin-3-yl]-acetamide]
22 | 9.22 | CCNc1n[nH]c2cc(NC(=O)NC(c3ccc(F)cc3)C(C)(C)OC)ncc12 (centres unmarked) [Example 430, 1-[3-(ethylamino)-1H-pyrazolo[4,3-c]pyridin-6-yl]-3-[1-(4-fluorophenyl)-2-methoxy-2-methylpropyl]urea]
23 | 7.24 | CCNc1n[nH]c2cc(NC(=O)NCc3cnsn3)ncc12 [Example 231, 1-[3-(ethylamino)-1H-pyrazolo[4,3-c]pyridin-6-yl]-3-(1,2,5-thiadiazol-3-ylmethyl)urea]
24 | 6.34 | C[C@@H](NC(=O)Nc1cc2[nH]nc(NC(=O)N[C@H](C)c3ccc(Cl)c(O)c3)c2cn1)c1ccc(Cl)c(O)c1 [Example 308, N′,N″′-1H-pyrazolo[4,3-c]-pyridine-3,6-diylbis{1-[(1R)-1-(4-chloro-3-hydroxyphenyl)-ethyl]urea}]
25 | 9.00 | COC[C@@H](NC(=O)Nc1cc2[nH]nc(N3CCC(OC)CC3)c2cn1)c1ccccc1 [Example 415, 1-[(1S)-2-methoxy-1-phenylethyl]-3-[3-(4-methoxypiperidin-1-yl)-1H-pyrazolo[4,3-c]pyridin-6-yl]urea]
26 | 9.22 | CCNc1n[nH]c2cc(NC(=O)N[C@H](C)c3ccccc3)nc(CO)c12 [Example 70, 1-[3-(ethylamino)-4-(hydroxymethyl)-1H-pyrazolo[4,3-c]-pyridin-6-yl]-3-[(1R)-1-phenylethyl]urea]
27 | 6.90 | CC(=O)Nc1n[nH]c2cc(NC(=O)N[C@H](C)c3ccccc3)nc(C)c12 [Example 337, (R)—N-(4-methyl-6-(3-(1-phenylethyl)ureido)-1H-pyrazolo[4,3-c]pyridin-3-yl)acetamide]
28 | 9.52 | CC(=O)Nc1n[nH]c2cc(NC(=O)N[C@H](COC(F)F)c3ccccc3)ncc12 [Example 364, N-[6-({[(1S)-2-(difluoromethoxy)-1-phenylethyl]-carbamoyl}amino)-1H-pyrazolo[4,3-c]pyridin-3-yl]-acetamide]
29 | 7.83 | CCNc1n[nH]c2cc(NC(=O)NCc3ccc(F)c(Cl)c3)ncc12 [Example 240, 1-(3-chloro-4-fluorobenzyl)-3-[3-(ethylamino)-1H-pyrazolo[4,3-c]-pyridin-6-yl]urea]
30 | 8.68 | CCNc1n[nH]c2cc(NC(=O)N[C@@H](c3ccccc3)C(C)(C)O)ncc12 [Example 420, 1-[3-(ethylamino)-1H-pyrazolo[4,3-c]pyridin-6-yl]-3-[(1S)-2-hydroxy-2-methyl-1-phenylpropyl]urea]
31 | 9.22 | CC(C)(O)[C@@H](NC(=O)Nc1cc2[nH]nc(N3CCOC(C(F)(F)F)C3)c2cn1)c1ccccc1 (stereo partly drawn) [Example 99, 1-[(1S)-2-hydroxy-2-methyl-1-phenylpropyl]-3-{3-[2-(trifluoromethyl)-morpholin-4-yl]-1H-pyrazolo[4,3-c]-pyridin-6-yl}urea]
32 | 8.23 | C[C@@H](NC(=O)Nc1cc2[nH]nc(NC(=O)C3CCCCC3)c2cn1)c1ccccc1 [Example 204, N-[6-({[(1R)-1-phenylethyl]-carbamoyl}amino)-1H-pyrazolo[4,3-c]pyridin-3-yl]-cyclohexane-carboxamide]
33 | 9.15 | CCNc1n[nH]c2cc(NC(=O)N[C@H](CO)c3ccccc3)ncc12 [Example 67, 1-[3-(ethylamino)-1H-pyrazolo[4,3-c]pyridin-6-yl]-3-[(1S)-2-hydroxy-1-phenylethyl]urea]
34 | 9.05 | CC(C)(O)[C@@H](NC(=O)Nc1cc2[nH]nc(N3CCC3)c2c(CO)n1)c1ccc(F)cc1 [Example 101, 1-[3-azetidin-1-yl-4-(hydroxymethyl)-1H-pyrazolo[4,3-c]-pyridin-6-yl]-3-[(1S)-1-(4-fluorophenyl)-2-hydroxy-2-methylpropyl]urea]
35 | 8.44 | C[C@@H](NC(=O)Nc1cc2[nH]nc(NC(=O)CC3CCCCC3)c2cn1)c1ccccc1 [Example 203, 2-cyclohexyl-N-[6-({[(1R)-1-phenylethyl]-carbamoyl}amino)-1H-pyrazolo[4,3-c]pyridin-3-yl]-acetamide]
